# Measurements from patent publication US8921372B2, “Inhibitors of hepatitis C virus” (Theravance Biopharma R&D IP, LLC, priority 2010, dated 2014).
# Like-named read-outs stand apart in the source and are kept apart here.
# Key:
# [1] = system: HCV genotype 1b replicon cell line (APC144; Huh7 cell background); assay: HCV Genotype 1b Replicon Assay (Renilla luciferase readout); format: cell-based; conditions: Hepatitis C virus, Huh-7; read-out: Genotype 1b (pEC50 class, HCV genotype 1b replicon assay) (converted)
# Source text: Assay 1: HCV Genotype 1b Replicon Assay
# The HCV genotype 1b replicon cell line was obtained from Apath LLC (Brooklyn, N.Y.) (APC144; Huh7 cell background). This subgenomic replicon contains the N-terminus of the HCV core protein fused to the neomycin-resistance selectable marker. The EMCV IRES lies downstream and drives expression of humanized Renilla luciferase fused to the non-structural proteins NS3-NS5B. This cell line was used to determine compound potency using the luciferase activity readout as a measurement of compound inhibition of replicon levels.
# (§1) Cells were grown at 37° C. in a 5% CO2 humidified incubator in DMEM (Invitrogen) with 10% FBS (HyClone), 1×NEAA (Invitrogen), 1× Pen-Strep (Invitrogen), and 500 μg/mL G418 (Invitrogen). On day 1 of the assay, cells were plated at 10,000 cells/well in white 96-well tissue culture plates (Costar) in 200 μL media lacking G418. Four hours later, once the cells have adhered, the media was removed and replaced with media (no G418) containing dose-responses of test compounds. Compounds were initially diluted in DMSO and then diluted another 200× in media to bring the final DMSO concentration down to 0.5%. The cells were incubated with test compounds for 48 hours. At the end of the incubation period, media and compound were removed from the plates and the luciferase activity was determined using Promega Renilla-Glo reagents.
# To analyze the data, the luciferase activity was plotted vs. the compound concentration, and EC50 values were determined from a 4-parameter robust fit model with the GraphPad Prism software package (GraphPad Software, Inc., San Diego, Calif.). Results are expressed as the negative decadic logarithm of the EC50 value, pEC50.
# Test compounds having a higher pEC50 value in this assay show greater inhibition of HCV genotype 1b replication.
# [2] = system: HCV genotype 1a replicon cell line (APC89; Huh7.5 cell background); assay: HCV Genotype 1a Replicon Assay (NS3-specific protease activity readout); format: cell-based; conditions: Hepatitis C virus
# Method: Assay 2: HCV Genotype 1a Replicon Assay
# The HCV genotype 1a replicon cell line was obtained from Apath LLC (APC89; Huh7.5 cell background). This subgenomic replicon contains the N-terminus of the HCV core protein fused to the neomycin-resistance selectable marker. The EMCV IRES lies downstream and drives expression of the non-structural proteins NS3-NS5B. Compound potencies were determined using the NS3-specific protease activity in lysates as a measurement of compound inhibition of replicon levels.
# as §1, with “850” for “500”, “15,000” for “10,000”, “black” for “white”, “had” for “have”, “48 or 72” for “48”, “plates.” for “plates and the luciferase activity was determined using Promega Renilla-Glo reagents.”
# To determine the NS3-specific protease activity in lysates, the cells were lysed at room temperature in 50 μL/well of 50 mM Hepes pH 7.5, 150 mM NaCl, 15% Glycerol, 0.15% Triton X-100, 10 mM DTT for 20 minutes with shaking. 50 μL of an NS3/4a protease-specific FRET substrate (Anaspec RET S1 Cat#22991) was then added to the wells at a final concentration of 15 μM. The plates were incubated at 37° C. for 20 minutes, which corresponds to a timepoint at which the protease activity is still in the linear phase. Protease activity was determined by measuring fluorescence (Excitation: 340 nm; Emission: 509 nm).
# To analyze the data, the fluorescence was plotted vs. the compound concentration, and EC50 values were determined from a 4-parameter robust fit model using GraphPad Prism software.
# [3] = 72 hour incubation, read-out: Genotype 1a (pEC50 class, HCV genotype 1a replicon assay) (converted)
SMILES,EC50 [1],"EC50 ([2]; compounds incubated for 48 hours, read-out: Genotype 1a (pEC50 class, HCV genotype 1a replicon assay), * results (converted))","EC50 [2, 3]"
"COC(=O)N[C@H](C(=O)N1CCC[C@H]1c1nc(-c2ccc(-c3ccc(C(=O)Nc4ccc(N5CCN(C(=O)C6CC6)CC5)cc4)cc3)cc2)c[nH]1)C(C)C [Example 7, {(S)-1-[(S)-2-(4-{4′-[4-(4-cyclopropanecarbonyl-piperazin-1-yl)-phenylcarbamoyl]-biphenyl-4-yl}-1H-imidazol-2-yl)-pyrrolidine-1-carbonyl]-2-methyl-propyl}-carbamic acid methyl ester]",< 0.1 nM,1 to 10 nM,–
COC(=O)N[C@H](C(=O)N1CCC[C@H]1c1nc(-c2ccc(-c3ccc(NC(=O)c4ccc(N5CCN(C(=O)c6c[nH]cn6)C[C@H]5C)nc4)cc3OC(F)(F)F)cc2)c[nH]1)C(C)C [Example 27],< 0.1 nM,–,< 0.1 nM
"COC(=O)N[C@H](C(=O)N1CCC[C@H]1c1nc(-c2ccc(-c3ccc(NC(=O)c4ccc(N5CCN(C(=O)[C@H]6CC6(C)C)C[C@H]5C)nc4)cc3OC(F)(F)F)cc2)c[nH]1)C(C)C [Example 25, [(S)-1-((S)-2-{5-[4′-({6-[(R)-4-((S)-2,2-Dimethyl-cyclopropanecarbonyl)-2-methyl-piperazin-1-yl]-pyridine-3-carbonyl}-amino)-2′-trifluoromethoxy-biphenyl-4-yl]-1H-imidazol-2-yl}-pyrrolidine-1-carbonyl)-2-methyl-propyl]-carbamic acid methyl ester]",< 0.1 nM,–,< 0.1 nM
"COC(=O)N[C@H](C(=O)N1CCC[C@H]1c1nc(-c2ccc(-c3ccc(NC(=O)c4ccc(N5CCN(C(=O)[C@H]6CC6(C)C)C[C@H]5C)nc4)cc3C(F)(F)F)cc2)c[nH]1)C(C)C [Example 34, [(S)-1-((S)-2-{5-[4′-({6-[(R)-4-((S)-2,2-Dimethyl-cyclopropanecarbonyl)-2-methyl-piperazin-1-yl]-pyridine-3-carbonyl}-amino)-2′-trifluoromethyl-biphenyl-4-yl]-1H-imidazol-2-yl}-pyrrolidine-1-carbonyl)-2-methyl-propyl]-carbamic acid methyl ester]",< 0.1 nM,–,< 0.1 nM
CNC(=O)N1CCN(c2ccc(C(=O)Nc3cc(OC(F)(F)F)c(-c4ccc(-c5c[nH]c([C@@H]6CCCN6C(=O)[C@@H](NC(=O)OC)C(C)C)n5)cc4)cc3Cl)cn2)[C@H](C)C1 [Example 27-68],< 0.1 nM,–,< 0.1 nM
CNC(=O)N1CCN(c2ccc(C(=O)Nc3ccc(-c4ccc(-c5c[nH]c([C@@H]6CCCN6C(=O)[C@@H](NC(=O)OC)C(C)C)n5)cc4)c(C(F)(F)F)c3)cn2)[C@H](C)C1 [Example 36],< 0.1 nM,–,0.1 to 1 nM
"COC(=O)N[C@H](C(=O)N1CCC[C@H]1c1nc(-c2ccc(-c3ccc(NC(=O)c4ccc(N5C[C@H](C)N(C(=O)[C@H]6CC6(C)C)C[C@H]5C)nc4)c(C)n3)cc2)c[nH]1)C(C)C [Example 71, {(S)-1-[(S)-2-(4-{4-[5-({6-[(2R,5S)-4-((S)-2,2-Dimethyl-cyclopropanecarbonyl)-2,5-dimethyl-piperazin-1-yl]-pyridine-3-carbonyl}-amino)-6-methyl-pyridin-2-yl]-phenyl}-1H-imidazol-2-yl)-pyrrolidine-1-carbonyl]-2-methyl-propyl}-carbamic acid methyl ester]",< 0.1 nM,–,0.1 to 1 nM
COC(=O)N[C@H](C(=O)N1CCC[C@H]1c1nc(-c2ccc(-c3ccc(NC(=O)c4ccc(N5C[C@H](C)N(C(=O)C6CC6)C[C@H]5C)nc4)cc3OC(F)(F)F)cc2)c[nH]1)C(C)C [Example 30],< 0.1 nM,–,< 0.1 nM
"COC(=O)N[C@H](C(=O)N1CCC[C@H]1c1nc(-c2ccc(-c3ccc(NC(=O)c4ccc(N5CCN(C(=O)C6CC6)CC5)cc4)cc3)cc2)c[nH]1)C(C)C [Example 1, {(S)-1-[(S)-2-(4-{4′-[4-(4-cyclopropanecarbonyl-piperazin-1-yl)-benzoylamino]-biphenyl-4-yl}-1H-imidazol-2-yl)-pyrrolidine-1-carbonyl]-2-methyl-propyl}-carbamic acid methyl ester]",< 0.1 nM,–,1 to 10 nM
